Experimental data taken from patent US6903079B2, “Nucleoside compounds and compositions thereof” (Inotek Pharmaceuticals Corporation, priority 2000, dated 2005).
Like-named read-outs stand apart in the source and are kept apart here.

Key:
[1] = target: T1, poly (ADP-ribose) synthetase (PARS) (Mus musculus, UniProt P11103); experiment: Peroxynitrite-induced PARS activation and cell injury in J774 macrophages; format: cell-based; conditions: J774 macrophages exposed to peroxynitrite
T1 construct: endogenous in cells; host or cells: J774 macrophages
T1 sequence (P11103 whole entry): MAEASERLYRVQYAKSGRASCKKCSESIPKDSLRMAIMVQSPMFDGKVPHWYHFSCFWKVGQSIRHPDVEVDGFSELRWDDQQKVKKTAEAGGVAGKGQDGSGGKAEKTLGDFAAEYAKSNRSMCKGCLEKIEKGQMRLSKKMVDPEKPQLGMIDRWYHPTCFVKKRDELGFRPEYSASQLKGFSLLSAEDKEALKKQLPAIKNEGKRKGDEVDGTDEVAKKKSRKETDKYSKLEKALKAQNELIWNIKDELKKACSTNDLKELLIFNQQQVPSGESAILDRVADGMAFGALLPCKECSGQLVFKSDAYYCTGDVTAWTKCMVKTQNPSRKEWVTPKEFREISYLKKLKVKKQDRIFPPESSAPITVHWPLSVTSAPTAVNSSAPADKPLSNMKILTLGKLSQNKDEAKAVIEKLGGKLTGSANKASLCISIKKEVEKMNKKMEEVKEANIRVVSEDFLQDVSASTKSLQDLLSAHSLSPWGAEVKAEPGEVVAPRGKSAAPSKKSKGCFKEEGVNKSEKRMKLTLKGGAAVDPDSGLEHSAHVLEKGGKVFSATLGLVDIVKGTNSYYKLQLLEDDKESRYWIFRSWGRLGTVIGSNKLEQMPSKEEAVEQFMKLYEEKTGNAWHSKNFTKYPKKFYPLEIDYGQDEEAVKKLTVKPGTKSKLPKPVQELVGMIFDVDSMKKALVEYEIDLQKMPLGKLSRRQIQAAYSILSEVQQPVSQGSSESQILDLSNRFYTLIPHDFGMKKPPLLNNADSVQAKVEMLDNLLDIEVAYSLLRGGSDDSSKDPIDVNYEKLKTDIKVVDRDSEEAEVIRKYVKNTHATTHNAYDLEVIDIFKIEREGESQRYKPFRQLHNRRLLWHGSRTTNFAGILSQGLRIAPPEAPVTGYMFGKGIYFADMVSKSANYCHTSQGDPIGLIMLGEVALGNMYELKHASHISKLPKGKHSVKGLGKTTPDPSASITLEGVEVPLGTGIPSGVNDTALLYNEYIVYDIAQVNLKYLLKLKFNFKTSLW
Text: In in vitro studies, J774 macrophages were exposed to peroxynitrite to induce activation of PARS and related cell injury.

PARS = PARS (Mus musculus, UniProt P11103); experiment: PARS inhibition by nucleoside derivatives (in vitro inflammation models); format: cell-based
PARS, sequence (P11103 whole entry): as above
Text: For example, conjugates of adenosine derivatives were investigated for PARS inhibition.

[2] = system: endotoxin-induced lethality in a mouse model; experiment: Endotoxin-induced lethality (systemic inflammation); format: in vivo
Protocol: The compounds were given as oral gavage at 10 mg/kg, twice a day.

[3] = system: mouse model of gut ischemia-reperfusion; experiment: Gut ischemia-reperfusion by ligation and release of superior mesenteric artery; FD4 gut permeability in everted gut sacks; conditions: 10 mg/kg i.v. 10 min prior to reperfusion
Protocol: In order to examine the efficacy of the compounds of the invention in ischemia-reperfusion conditions, the effect of selected compounds in a local model of reperfusion injury was examined. […] The artery was occluded for 45 min, followed by reperfusion for 1 h. Following the end of the reperfusion, gut permeability was measured with the fluorescein isothiocyanate-conjugated dextran (FD4) method in everted gut sacks.
The artery was occluded for 45 min, followed by reperfusion for 1 h. Following the end of the reperfusion, gut permeability was measured with the FD4 method in everted gut sacks.

[4] = system: rat model of middle cerebral artery occlusion/reperfusion; experiment: Middle cerebral artery occlusion/reperfusion; format: in vivo; conditions: 2 h occlusion, 24 h reperfusion, 10 mg/kg i.v. then 10 mg/kg/h, tetrazolium staining
Protocol: Occlusion lasted for 2 hours, followed by reperfusion for 24 hours. Infarct size was quantified with tetrazolium staining and survival and neurological scores were monitored. The compounds were administered at 10 mg/kg i.v. 5 min before the start of reperfusion in one group, and continued at a rate of 10 mg/kg/h infusion during the reperfusion. Vehicle-treated animals (control) developed a >50% mortality over 24 hours, whereas <10% of the animals died in the drug treated groups. The compounds tested reduced the size of brain infarction by 64±2 and 57±3%, respectively.

[5] = 10 μM, Table 3 parent/reference compounds, read-out: INHIBITION at 10 μM
[6] = 10 μM, values marked *, asterisk not explained, read-out: Inhibition at 10 μM (values marked *)

| Compound | inhibition at 10 µM (PARS; read-out: Inhibition at 10 μM) | inhibition at 100 µM (PARS; read-out: Inhibition at 100 μM) | further results |
| --- | --- | --- | --- |
| 3-N-chloroacetyl-2,3-dihydro-1H-isoindol-1-one [Compound 5] | – | – | % Inhibition (10 μM) [1]: 29% |
| O=C(O)CCn1ccc2c1CCCC2=O [C, reference compound] | – | – | inhibition at 10 µM (PARS; [5]): 4% |
| O=C1NCc2ccccc21 [Compound 1] | – | – | inhibition at 10 µM (PARS; [5]): 33%; inhibition at 10 µM [1]: 33% |
| O=C1NCc2c(F)cccc21 [Compound 2] | – | – | inhibition at 10 µM [1]: 27% |
| O=C1NCc2c1cccc2[N+](=O)[O-] [Compound 3, 4-nitro-2,3-dihydro-1H-isoindol-1-one] | – | – | inhibition at 10 µM [1]: 12% |
| Nc1cccc2c1CNC2=O [Compound 4, 4-amino-2,3-dihydro-1H-isoindol-1-one] | – | – | inhibition at 10 µM (PARS; [5]): 27%; inhibition at 10 µM [1]: 27% |
| CN1CCN(CCC(=O)Nc2cccc3c2CNC3=O)CC1 [Compound 9, 4-N-(N-methylpiperazine)propylamido-2,3-dihydro-1H-isoindol-1-one] | – | – | % Inhibition (10 μM) [1]: 59% |
| CN1CCN(CCCC(=O)Nc2cccc3c2CNC3=O)CC1 [Compound 10, 4-N-(N-methylpiperazine)butylamido-2,3-dihydro-1H-isoindol-1-one] | – | – | % Inhibition (10 μM) [1]: 35% |
| O=C1NCc2c(O)cccc21 [Compound 27, 4-hydroxy-2,3-dihydro-1H-isoindol-1-one] | – | – | inhibition at 10 µM [1]: 60% |
| COc1cccc2c1CNC2=O [Compound 28] | – | – | inhibition at 10 µM [1]: 64% |
| O=C(CCC(=O)N1CCc2ccccc2C1)Nc1cccc2c1CNC2=O [Compound 36, 4-N-(tetrahydroisoquinolinosuccinamido)-2,3-dihydro-1H-isoindol-1-one] | – | – | % Inhibition (10 μM) [1]: 64% |
| N=C(N)NCCC[C@H](N)C(=O)Nc1cccc2c1CNC2=O [Compound 42, 4-N-(arginyl)-2 ,3-dihydro-1H-isoindol-1-one] | – | – | % Inhibition (10 μM) [1]: 72% |
| O=C(O)CCC(=O)Nc1cccc2c1CNC2=O [Compound 55, 4-N-(succinyl)-2,3-dihydro-1H-isoindol-1-one] | – | – | % Inhibition (10 μM) [1]: 25% |
| O=C(CN1CCNCC1)Nc1cccc2c1CNC2=O [Compound 73] | – | – | inhibition at 10 µM [1]: 61% |
| Nc1ncnc2c1ncn2C1OC(CNC(=O)CC(=O)Nc2cccc3c2CNC3=O)C(O)C1O (stereo not shown) [Compound 101] | 64% | 100% | – |
| Nc1ncnc2c1ncn2C1OC(CNC(=O)CCC(=O)Nc2cccc3c2CNC3=O)C(O)C1O (stereo not shown) [Compound 102] | – | – | inhibition at 10 µM (PARS; read-out: Inhibition at 10 μM, 10 μM): 100%; inhibition at 100 µM (PARS; read-out: Inhibition at 100 μM, 100 μM): 100% |
| Nc1ncnc2c1ncn2C1OC(CNC(=O)CCCCCC(=O)Nc2cccc3c2CNC3=O)C(O)C1O (stereo not shown) [Compound 105] | 66% | 100% | – |
| Nc1ncnc2c1ncn2C1OC(CNC(=O)CCCCCCC(=O)Nc2cccc3c2CNC3=O)C(O)C1O (stereo not shown) [Compound 106] | – | – | inhibition at 10 µM (PARS; 10 μM): 98; inhibition at 100 µM (PARS; 100 μM): 100 |
| Nc1ncnc2c1ncn2C1OC(CNC(=O)CCCCCCCC(=O)Nc2cccc3c2CNC3=O)C(O)C1O (stereo not shown) [Compound 107] | 62% | 100% | – |
| Nc1ncnc2c1ncn2C1OC(CNC(=O)CCCCCCCCC(=O)Nc2cccc3c2CNC3=O)C(O)C1O (stereo not shown) [Compound 108] | 34% | 74% | – |
| CC1(C)OC2C(CNC(=O)CCC(=O)Nc3cccc4c3CNC4=O)OC(n3cnc4c(N)ncnc43)C2O1 (stereo not shown) [Compound 109] | 29% | 60% | – |
| CC1(C)OC2C(CNC(=O)CCCC(=O)Nc3cccc4c3CNC4=O)OC(n3cnc4c(N)ncnc43)C2O1 (stereo not shown) [Compound 110] | 29% | 64% | – |
| Nc1ncnc2c1ncn2C1OC(CNC(=O)C(O)C(O)C(=O)Nc2cccc3c2CNC3=O)C(O)C1O (stereo not shown) [Compound 111] | 75% | 100% | – |
| Nc1ncnc2c1ncn2C1OC(CNC(=O)C(F)(F)C(F)(F)C(F)(F)C(=O)Nc2cccc3c2CNC3=O)C(O)C1O (stereo not shown) [Compound 113] | 55% | 85% | – |
| Nc1ncnc2c1ncn2C1OC(CNC(=O)COCC(=O)Nc2cccc3c2CNC3=O)C(O)C1O (stereo not shown) [Compound 114] | 56% | 100% | – |

| Compound | inhibition at 10 µM (PARS; read-out: Inhibition at 10 μM) | inhibition at 100 µM (PARS; read-out: Inhibition at 100 μM) | further results |
| --- | --- | --- | --- |
| Nc1ncnc2c1ncn2[C@@H]1OC(CNC(=O)c2c(F)ccc(F)c2C(=O)Nc2cccc3c2CNC3=O)[C@@H](O)[C@H]1O (stereo partly shown) [Compound 115] | 0% | 34% | – |
| Nc1ncnc2c1ncn2[C@@H]1OC(CNC(=O)c2cc(Cl)c(Cl)cc2C(=O)Nc2cccc3c2CNC3=O)[C@@H](O)[C@H]1O (stereo partly shown) [Compound 116] | 0% | 55% | – |
| Nc1ncnc2c1ncn2[C@@H]1OC(CNC(=O)/C=C/c2ccc(C(=O)Nc3cccc4c3CNC4=O)cc2)[C@@H](O)[C@H]1O (stereo partly shown) [Compound 118] | 31.3% | 51.4% | – |
| Nc1ncnc2c1ncn2C1OC(CNCC(=O)Nc2cccc3c2CNC3=O)C(O)C1O (stereo not shown) [Compound 119] | 25% | 58% | – |
| Nc1ncnc2c1ncn2C1OC(CNC(=O)CNC(=O)Nc2cccc3c2CNC3=O)C(O)C1O (stereo not shown) [Compound 120] | 62% | 100% | – |
| Nc1ncnc2c1ncn2C1OC(CNC(=O)CC(O)CC(=O)Nc2cccc3c2CNC3=O)C(O)C1O (stereo not shown) [Compound 121] | – | 81% | inhibition at 10 µM (PARS; [6]): 13.3% |
| O=C(CCC(=O)Nc1cccc2c1CNC2=O)NCC1OC(n2cnc3c(NCC4CC4)ncnc32)C(O)C1O (stereo not shown) [Compound 122] | – | – | inhibition at 10 µM (PARS; [6]): 25% |
| CN(CC(=O)Nc1cccc2c1CNC2=O)C(=O)C1OC(n2cnc3c(N)ncnc32)C(O)C1O (stereo not shown) [Compound 123] | – | – | inhibition at 10 µM (PARS; [6]): 74% |
| CN(CCC(=O)Nc1cccc2c1CNC2=O)C(=O)C1OC(n2cnc3c(N)ncnc32)C(O)C1O (stereo not shown) [Compound 124] | – | – | protection against endotoxin-induced lethality [2]: protected against endotoxin-induced lethality; reduction of the increase in the permeability of the gut [3]: 72%; reduction of the size of brain infarction [4]: 64±2% |
| CN(CCCCCCCC(=O)Nc1cccc2c1CNC2=O)C(=O)C1OC(n2cnc3c(N)ncnc32)C(O)C1O (stereo not shown) [Compound 125] | – | – | inhibition at 10 µM (PARS; [6]): 70% |
| CCN(CC(=O)Nc1cccc2c1CNC2=O)C(=O)C1OC(n2cnc3c(N)ncnc32)C(O)C1O (stereo not shown) [Compound 126] | – | – | inhibition at 10 µM (PARS; [6]): 67.1% |
| CCN(CCC(=O)Nc1cccc2c1CNC2=O)C(=O)C1OC(n2cnc3c(N)ncnc32)C(O)C1O (stereo not shown) [Compound 127] | – | – | inhibition at 10 µM (PARS; [6]): 89% |
| Nc1ncnc2c1ncn2C1OC(C(=O)NCC(=O)Nc2cccc3c2CNC3=O)C(O)C1O (stereo not shown) [Compound 128] | – | – | inhibition at 10 µM (PARS; [6]): 83.2% |
| Nc1ncnc2c1ncn2C1OC(C(=O)NCCC(=O)Nc2cccc3c2CNC3=O)C(O)C1O (stereo not shown) [Compound 129] | – | – | inhibition at 10 µM (PARS; [6]): 77.4% |
| Nc1ncnc2c1ncn2C1OC(CNC(=O)CCCCCCC(=O)Nc2cccc3c2CNC3=O)C(O)C1O (stereo not shown) [Compound 131] | – | – | inhibition at 10 µM (PARS; 10 μM): 36; inhibition at 100 µM (PARS; 100 μM): 68 |
| O=C(CCC(=O)Nc1cccc2c1CNC2=O)NCC1OC(n2ccc(O)nc2=O)C(O)C1O (stereo not shown) [Compound 132] | 61% | 83% | – |
| NC(=O)c1ccccc1-c1cccc(NC(=O)CCC(=O)NCC2OC(n3cnc4c(N)ncnc43)C(O)C2O)c1 (stereo not shown) [Compound 133] | 5% | 69% | – |
| NC(=O)c1cccc(NC(=O)CCC(=O)NCC2OC(n3cnc4c(N)ncnc43)C(O)C2O)c1 (stereo not shown) [Compound 134] | 52% | 73% | – |
| CC1(C)OC2C(CNC(=O)CCn3ccc4c3CCCC4=O)OC(n3cnc4c(N)ncnc43)C2O1 (stereo not shown) [Compound 135] | 15% | 25% | – |
| Nc1ncnc2c1ncn2C1OC(CNC(=O)CCn2ccc3c2CCCC3=O)C(O)C1O (stereo not shown) [Compound 136] | 32% | 42% | – |
| CC1(C)OC2C(CN3C(=O)c4ccccc4C3=O)OC(n3cnc4c(N)ncnc43)C2O1 (stereo not shown) [Compound 137] | 21% | 40% | – |
| NCC1OC(n2cnc3c(N)ncnc32)C(O)C1O (stereo not shown) [Compound 139] | – | 27% | – |
| Nc1ncnc2c1ncn2C1OC(C(=O)O)C(O)C1O (stereo not shown) [Compound 140] | 14.2% | – | – |
| NC(=O)c1ccccc1-c1cccc(N)c1 [F, reference compound] | – | – | inhibition at 10 µM (PARS; [5]): 37% |
| Nc1ncnc2c1ncn2[C@@H]1O[C@H](CO)[C@@H](O)[C@H]1O [G, adenosine, reference compound] | – | – | PARS inhibitory activity (in words) (PARS): only modest activity; inhibition at 10 µM (PARS; [5]): 40% |
